Measurements taken from patent US20230092846A1, “COMBINATION FOR THE TREATMENT OF CANCER AND APPLICATION THEREOF” (EVERFRONT BIOTECH INC., priority 2020, published 2023).
Values after ≈ are worked out from the molar mass of the structure shown. Read-outs that look alike come from different tables or passages of the source.

What was measured:
PANC-1 cells = assay: MTT cell viability analysis, single agents, PANC-1; assay type: cell-based, human
Experimental: (§1) In this example, the effects of the compound of the present invention and different anticancer medicaments on killing cancer cells were studied by MTT (Thiazolyl Blue tetrazolium bromide, 3-[4,5-dimethylthiahiazo-2-yl]-[…] bromide) cell viability analysis.
(§2) Thereafter, each of the aforesaid cell lines was cultured with cell medium containing gemcitabine, cisplatin, 5-fluorouracil, irinotecan, oxaliplatin, paclitaxel, (Z)-n-butylidenephthalide, (E)-n-butylidenephthalide, 2-pentanolybenzoic acid, sodium 2-pentanoylbenzoate, and butylphthalide, for 24 hours, 48 hours and 72 hours, respectively.

Mia-PaCa2 cells = assay: MTT cell viability analysis, single agents, Mia-PaCa2; assay type: cell-based, human
Experimental: as §1, §2

AsPC-1 cells = assay: MTT cell viability analysis, single agents, AsPC-1; assay type: cell-based, human
Experimental: as §1, §2

Panc02 cells = assay: MTT cell viability analysis, single agents, Panc02; assay type: cell-based, mouse
Experimental: as §1, §2

A549 cell = assay: MTT cell viability analysis, single agents, A549; assay type: cell-based; settings: cultured 24, 48 and 72 hours (time of IC50 not given)
Experimental: as §1
(§3) Thereafter, each of the aforesaid cell lines were cultured with cell medium containing 5-fluorouracil, (Z)-n-butylidenephthalide, and 2-pentanolybenzoic acid for 24 hours, 48 hours and 72 hours.

HepG2 cell = assay: MTT cell viability analysis, single agents, HepG2; assay type: cell-based; settings: cultured 24, 48 and 72 hours (time of IC50 not given)
Experimental: as §1, §3

HT-29 cell = assay: MTT cell viability analysis, single agents, HT-29; assay type: cell-based; settings: cultured 24, 48 and 72 hours (time of IC50 not given)
Experimental: as §1, §3

DBTRG-05MG cell = assay: MTT cell viability analysis, single agents, DBTRG-05MG; assay type: cell-based; settings: cultured 24, 48 and 72 hours (time of IC50 not given)
Experimental: as §1, §3

[1] = test system: Panc02 cells pancreatic tumor; assay: Orthotopic Panc02 pancreatic tumor, tumor size by T2-weighted MRI; assay type: in vivo, C57BL/6J mouse; settings: fifteenth day, 14 days of treatment; group regimens; FIG. 3
Experimental: (§4) According to the requirements of Institutional Animal Care and Use Committee (IACUC) of Dong Hwa University, C57BL/6J mice were feed in the experimental animal center of Dong Hwa University until 8 to 10 weeks old. Then, the stably constructed Panc02 cells transfected by Luc-eGFP were in-situ injected into the mice pancreases (1×10^6 cells/0.02 ml/mouse). Thereafter, the tumor sizes of mice pancreases were analyzed through the animal imaging results, and the mice were equally divided into nine group depending on their tumor sizes and treated by the following conditions for three to four weeks:
(1) “Control (Ctl.)” group (5 mice): untreated, only orally administering vehicle (containing none of the compound of the present invention and other anticancer medicaments) every day. […]
The stably constructed Panc02 cells transfected by Luc-eGFP were in-situ injected into the mice of each group of Example 4-1, and after determining the growth of in-situ pancreatic tumor, the medicament treatments were conducted for 14 days (i.e., the fifteenth day). In this duration, the pancreatic tumors of mice in each group were analyzed and observed by T2-weighted MRI and taken pictures for records. The tumor (a portion circled by a dotted line) sizes of mice of each group in FIG. 2 were analyzed by amide software.

[2] = test system: Panc02 cells pancreatic tumor; assay: Survival of mice with orthotopic Panc02 pancreatic cancer; assay type: in vivo, C57BL/6J mouse; settings: for Fold (as compared to Ctl. group): survival
Experimental: as §4
(1) “Control (Ctl.)” group (5 mice): untreated, only orally administering vehicle (containing none of the compound of the present invention and other anticancer medicaments) every day.
(2) “LD” group (5 mice): orally administering a low dose (12.5 mg/kg body weight) of (Z)-n-butylidenephthalide every day.
(3) “HD” group (5 mice): orally administering a high dose (25 mg/kg body weight) of (Z)-n-butylidenephthalide every day.
(4) “Gem” group (5 mice): intraperitoneally injecting 100 mg/kg body weight of gemcitabine (GEM) per three days.
(5) “LD+Gem” group (5 mice): orally administering 12.5 mg/kg body weight of (Z)-n-butylidenephthalide every day, and intraperitoneally injecting 50 mg/kg body weight of gemcitabine (GEM) per three days.
(6) “TS-1” group (5 mice): after orally administering 100 mg/kg body weight of TS-1 every day for five continuous days, stopping the oral administration of TS-1 for two days.
According to the method of Example 4-1, the pancreatic cancer mice were established and the survivals of mice in each group were observed and recorded every day. The results are shown in Table 15 and FIG. 5A to FIG. 5D.

PD-1 protein = assay: Western Blotting of pancreatic tumor tissue, PD-1; assay type: in vivo, C57BL/6J mouse; settings: FIG. 6, group regimens
Experimental: as §4
(§5) After accomplishing the observations of Examples 4-2 to 4-3, the mice in each group were sacrificed and the tissues of pancreatic tumor thereof were collected to extracting proteins. Then, the expressions of CD44 protein, CD44ICD protein, PD-1 protein, PD-L1 protein, p-Akt protein, and Akt protein in the protein sample of each group were detected by Western Blotting. Furthermore, the expression of GAPDH protein serves as an internal control.

PD-L1 protein [3] = assay: Western Blotting of pancreatic tumor tissue, PD-L1; assay type: in vivo, C57BL/6J mouse; settings: FIG. 6, group regimens
Experimental: as §4, §5

CD44ICD protein = assay: Western Blotting of treated Panc02 cells, CD44ICD; assay type: cell-based, mouse; settings: FIG. 1
Experimental: (§6) The Panc02 cells (pancreatic cancer cell line) were cultured with 37.5 and 75 μg/ml of (Z)-n-butylidenephthalide for 6 hours (a portion of cells were harvested after culturing for 3 hours), respectively. Thereafter, proteins of the cells were extracted, and the expressions of CD44 intracellular domain (CD44ICD) protein and PD-L1 protein in the cancer cells treated with (Z)-n-butylidenephthalide were measured by Western Blotting. Furthermore, the expression of GAPDH protein was measured as an internal control.

PD-L1 protein [4] = assay: Western Blotting of treated Panc02 cells, PD-L1; assay type: cell-based, mouse; settings: 37.5 and 75 μg/ml, 3 and 6 hours, FIG. 1
Experimental: as §6

[5] = MTT, cultured 24, 48 and 72 hours (time of IC50 not given)
[6] = Mia-PaCa2, MTT, cultured 24, 48 and 72 hours (time of IC50 not given)
[7] = AsPC-1, MTT, cultured 24, 48 and 72 hours (time of IC50 not given)
[8] = Homo sapiens, MTT, cultured 24, 48 and 72 hours (time of IC50 not given), read-out: IC50
[9] = Homo sapiens, MIA PaCa-2, Mia-PaCa2, MTT, cultured 24, 48 and 72 hours (time of IC50 not given), read-out: IC50
[10] = Homo sapiens, ASPC1, AsPC-1, MTT, cultured 24, 48 and 72 hours (time of IC50 not given), read-out: IC50
[11] = Mus musculus, MTT, cultured 24, 48 and 72 hours (time of IC50 not given), read-out: IC50
[12] = Gem group: 100 mg/kg intraperitoneally per three days
[13] = HD group: 25 mg/kg orally every day
[14] = LD group: 12.5 mg/kg orally every day

2-pentanolybenzoic acid
IC50 (PANC-1 cells; [5]): 980.5 ± 22.64 µg/mL | IC50 (Mia-PaCa2 cells; [6]): 693.5 ± 19.57 µg/mL | IC50 (AsPC-1 cells; [7]): 490.2 ± 19.69 µg/mL | IC50 (Panc02 cells; [5]): 769.9 ± 15.13 µg/mL | IC50 (A549 cell): 795.5 ± 0.02 µg/mL | IC50 (HepG2 cell): 1141.5 ± 0.01 µg/mL | IC50 (HT-29 cell): 443.8 ± 0.04 µg/mL | IC50 (DBTRG-05MG cell): 392.8 ± 0.01 µg/mL

O=C1[O][Pt]2([NH][C@@H]3CCCC[C@H]3[NH]2)[O]C1=O [oxaliplatin, Oxaliplatin]
IC50 (PANC-1 cells; [5]): 18.79 ± 1.35 µg/mL | IC50 (Mia-PaCa2 cells; [6]): 21.81 ± 1.60 µg/mL | IC50 (AsPC-1 cells; [7]): 42.60 ± 7.61 µg/mL | IC50 (Panc02 cells; [5]): 8.43 ± 0.83 µg/mL

CCCCC1OC(=O)c2ccccc21 (centres unmarked) [butylphthalide, Butylphthalide]
IC50 (PANC-1 cells; [5]): >200 µg/mL | IC50 (Mia-PaCa2 cells; [6]): 198.9 ± 7.69 µg/mL (≈ 1050 µM) | IC50 (AsPC-1 cells; [7]): >300 µg/mL

CC(=O)O[C@H]1C(=O)[C@@]2(C)[C@H]([C@H](OC(=O)c3ccccc3)[C@]3(O)C[C@H](OC(=O)[C@H](O)[C@@H](NC(=O)c4ccccc4)c4ccccc4)C(C)=C1C3(C)C)[C@]1(OC(C)=O)CO[C@@H]1C[C@@H]2O [paclitaxel, Paclitaxel]
IC50 (PANC-1 cells; [8]): 0.0196 µg/mL (≈ 0.023 µM) | IC50 (Mia-PaCa2 cells; [9]): 0.00458 µg/mL (≈ 0.00536 µM) | IC50 (AsPC-1 cells; [10]): 0.058 µg/mL (≈ 0.0679 µM) | IC50 (Panc02 cells; [11]): 0.0124 µg/mL (≈ 0.0146 µM)

Nc1ccn([C@@H]2O[C@H](CO)[C@@H](O)C2(F)F)c(=O)n1 [gemcitabine, Gemcitabine]
IC50 (PANC-1 cells; [8]): 1.53 ± 0.3 µg/mL (≈ 5.81 µM) | IC50 (Mia-PaCa2 cells; [9]): 0.85 ± 0.36 µg/mL (≈ 3.23 µM) | IC50 (AsPC-1 cells; [10]): 6.56 ± 0.82 µg/mL (≈ 24.9 µM) | IC50 (Panc02 cells; [11]): 0.00377 µg/mL (≈ 0.0143 µM) | tumor size (T2-weighted MRI) [1]: bigger than that of untreated “Control” group | Average of overall survival [2, 12]: 31.7 ± 1.023 days | Median of overall survival [2, 12]: 30 days | Fold (as compared to Ctl. group) [2, 12]: 1.8 | expression of PD-1 protein in pancreatic tumor tissue (PD-1 protein): more than that of the untreated “Control” group | expression of PD-L1 protein in pancreatic tumor tissue (PD-L1 protein [3]): more than that of the untreated “Control” group

CCC/C=C1\OC(=O)c2ccccc21 [(Z)-n-butylidenephthalide]
IC50 (PANC-1 cells; Homo sapiens): 41.2 ± 2.81 µg/mL (≈ 219 µM) | IC50 (Mia-PaCa2 cells; Homo sapiens, MIA PaCa-2): 55.9 ± 1.35 µg/mL (≈ 297 µM) | IC50 (AsPC-1 cells; Homo sapiens, ASPC1): 83.3 ± 2.56 µg/mL (≈ 443 µM) | IC50 (Panc02 cells; Mus musculus): 32.9 ± 2.33 µg/mL (≈ 175 µM) | IC50 (A549 cell; Homo sapiens, read-out: IC50): 63.6 ± 0.06 µg/mL (≈ 338 µM) | IC50 (HepG2 cell; Homo sapiens, read-out: IC50): 81.1 ± 0.02 µg/mL (≈ 431 µM) | IC50 (HT-29 cell; Homo sapiens, read-out: IC50): 52.9 ± 0.01 µg/mL (≈ 281 µM) | IC50 (DBTRG-05MG cell; Homo sapiens, read-out: IC50): 133 µg/mL (≈ 704 µM) | expression of CD44ICD protein (CD44ICD protein; 37.5 and 75 μg/ml, 3 and 6 hours): decreased as the concentration of (Z)-n-butylidenephthalide was increased | expression of CD44ICD protein at 6 hours (CD44ICD protein; 6 hours): completely inhibited | expression of PD-L1 protein (PD-L1 protein [4]): decreased as the concentration of (Z)-n-butylidenephthalide was increased | Average of overall survival [2, 13]: 27.2 ± 0.533 days | Median of overall survival [2, 13]: 27 days | Average of overall survival [2, 14]: 30.6 ± 2.205 days | Median of overall survival [2, 14]: 30 days | survival days compared to Control group and TS-1 group [2, 14]: more than that of “Control” group | Fold (as compared to Ctl. group) [2, 13]: 1.6 | Fold (as compared to Ctl. group) [2, 14]: 1.8
